Experimental data: publication PMC5068747, “Using C. elegans Forward and Reverse Genetics to Identify New Compounds with Anthelmintic Activity” (PLoS Neglected Tropical Diseases, 2016)
“And” between values parts separate entries of the source, which are not always exact repeats. Equal entries are not always repeated.

Assays:
[1] = system: C. elegans VC3631 (mev-1 gk3613, D19 resistant); test: IC50 on CID 2747322 resistant C. elegans strain VC3631; format: in vivo, Caenorhabditis elegans; conditions: Caenorhabditis elegans, 120 h; 5 days exposure, 2 L4 per well, three biological replicates
Experimental: All compound libraries were stored in 96-well plates, with 80 drugs per plate (columns 1 and 12 left empty). A BioGrid BG600 pinning robot (Digilab / BioRobotics) was used for compound transfer. The robot uses a 96-pin tool (0.7 mm dia.) to transfer a nominal volume of 340 nL of compound. For retesting, compounds were hand pinned from the original library plates to assay plates using a single 0.7 mm dia. pin. The assay plates were 96-well clear flat-bottom microplates containing 2% χ1666 E.coli bacteria in 0.5X Liquid Nematode Growth Media (LNGM) plus cholesterol (Bacteria were mass-grown in rich media, and harvested by centrifugation to produce a thick paste of bacterial cells that was kept frozen at -20°C. Cells were resuspended at 2% W/V in 0.5X LNGM to produce liquid worm food). Using a COPAS Biosort (Union Biometrica), two L4 to young adult stage VC2010 worms were added to each well of the plate in a final volume of 45 μL. After five days of exposure to the compounds, the plates were scanned and the data analyzed. A five day time period was chosen to be able to observe effects over all stages of the life cycle and through at least one round of replication. The initial proof-of-principle primary screen was performed manually using a dissecting microscope. Phenotypes scored included decreased motility, reduced brood size, and/or death as described previously. For high throughput screening of the Chembridge and Maybridge compound libraries we used the program WormScan, which was adapted for screening 96-well flat-bottom LNGM plates. Using WormScan it was possible to screen four 96-well plates at a time. Plates were scanned twice, at a resolution of 1200 dots per inch, 16-bit grayscale, producing a jpeg image. The light intensity produced by the scanner was sufficient to cause negative phototaxis equivalent to a physical stimulus for mortality determination. The time required to scan four 96-well plates using an Epson Perfection V700 Photo Scanner was less than ten minutes. The time to screen a single plate was less than 1.2 minutes, with less than ten seconds between scans.
WormScan was used to screen for the same phenotypes as in the manual screen (reduced brood size, reduced behavior/motility response and increased mortality). Two sequential scans for each 96-well plate were aligned to a reference region of interest (ROI). Image analysis was based on a difference image score calculated for each ROI. The difference image score (WormScan score) was normalized using a “percent of control” method to derive a normalized WormScan score. […] Wild-type growth in 1% DMSO (Fig 1A) results in a normalized WormScan score of 100. Exposure to 50 nM ivermectin gives a score of 0 (Fig 1C), and complete absence of worms gives a score of 0 (Fig 1D). For the primary screen the WormScan score was calculated using custom macro scripts written for Fiji. For secondary screening and any subsequent studies the WormScan score was calculated using a standalone Java program (See supplemental). Probit regression of mortality was calculated using Mathematica 8.0.
A standard ethyl methanesulfonate (EMS) mutagenesis protocol was carried out using VC2010 in order to generate mutants resistant to CID 2747322 exposure. First larval stage (L1) F2 progeny of mutagenized P0s were exposed to CID 2747322 at 200 μM in liquid worm food in 24-well tissue culture plates for five days at room temperature, and two independently isolated resistant lines (VC3614 and VC3615) were identified. […]

Meloidogyne hapla J2 = test: Immobilization of infective second-stage juveniles (J2) of Meloidogyne hapla; format: in vivo
Experimental: A laboratory population of the plant-parasitic northern root-knot nematode, Meloidogyne hapla, was initiated by inoculating a tomato seedling growing in a 500 ml pot of 50:50 pasteurized sandy soil:peat with ~100 infective second-stage juveniles (J2) extracted from infested soil from a vineyard in the Okanagan Valley. The population was thereafter reared on tomato under greenhouse conditions. Prior to experimentation, galled roots were removed from heavily infested tomato plants, washed over a sieve with tap water, and then placed on Baermann funnels. J2 hatchings over the first three days were collected and suspended in tap water at a concentration of 100 J2/ml. Replicate 24-well cell culture plates were seeded with 0.2 ml of J2 suspension. Dilutions of CID 2747322 in distilled water were then added to the wells to result in four replicate wells of each of six concentrations in each plate. Concentrations tested spanned 0 to 320 μM and 0 to 160 μM in the two separate runs of the experiment. Nematodes were observed using an inverted microscope at 40X. On each observation date, a transect through each well was observed and J2 within the transect were scored as mobile or immobile. J2 that had taken on a straight posture were scored as immobile. Recently hatched J2 of M. hapla normally move continuously but slowly and always have a curved posture.
Supplementary file pntd.0005058.s005.pdf: S5 Fig Dosage curve for effects on Meloidogyne hapla of CID 2747322. The percentage of immobilization of infective juveniles of Meloidogyne hapla was measure after ten days of exposure to the compound. Data are from two separate trials testing 0–320 and 0–160 μM concentration ranges, respectively, with each point representing the mean of twelve test wells. (PDF) Click here for additional data file.

C. elegans VC2010 = test: Manual inspection of growth, brood size, developmental stage and recovery of C. elegans in drug; format: in vivo, Caenorhabditis elegans
Experimental: WormScan is a powerful tool to identify compounds with potential effects on the nematode, but it is still necessary to do manual inspection of wells with few animals to determine details of growth, behavior and fecundity. Wild-type worms grown in 90 μM CID 2747322 have brood sizes reduced by 97%. […] All current classes of anthelmintic have greater specificity towards certain life-stages. It is interesting that when removed from the drug L1s will recover and develop, and generally become fertile adults (See S3 Fig).
Supplementary file pntd.0005058.s002.tiff: S2 Fig Developmental stage of inhibition in C. elegans after CID 2747322 exposure. Ten VC2010 L1 stage C. elegans were sorted into a DMSO control well or 90 μM of CID 2747322. Nematodes were removed from the DMSO control or CID 2747322 after 24/48/72 hours and allowed to recover for 30 minutes on standard agar plates. (TIFF) Click here for additional data file.
Supplementary file pntd.0005058.s003.tiff: S3 Fig Development of C. elegans after removel from CID 2747322. Greater than 50 VC2010 L1 stage C. elegans were sorted into a DMSO control well or 90 μM of CID 2747322. Nematodes were removed from DMSO control or CID 2747322 after 2 days of exposure and left to recovery for 24/48/72 hours. (TIFF) Click here for additional data file.

Structure (SMILES): COc1ccc(OCCNC(=O)c2ccccc2C(F)(F)F)cc1 [CID 2747322, N-[2-(4-methoxyphenoxy)ethyl]-2-(trifluoromethyl)benzamide]
- IC50 [1]: > 500 µM
- immobilization of M. hapla J2 (Meloidogyne hapla J2; 160 and 320 μM, 24 hours after exposure initiation, increased through day 10): Immobilization was observed
- IC50 (Meloidogyne hapla J2; Meloidogyne hapla, 240 h, 10 day exposure): 129 µM and 44 µg/mL
- survival of M. hapla (Meloidogyne hapla J2; extended exposure): die after extended exposure
- developmental stage of inhibition (C. elegans VC2010; 90 μM, while maintained in drug): arrest at the first larval stage (L1)
- outcome after exposure / removal from drug (C. elegans VC2010; L1s removed from the drug): reversible inhibition
- brood sizes reduced (C. elegans VC2010; wild-type worms grown in 90 μM): 97%
